{
  "source": "patent US20240398756A1",
  "about": "“DRUG FOR REDUCING BLOOD GLUCOSE AND/OR TREATING DIABETIC COMPLICATIONS” (SICHUAN UNIVERSITY, priority 2022, published 2024)",
  "key": {"C57BL/KsJ db/db mice [1]": {"tested_on": "C57BL/KsJ db/db mice", "experiment": "Blood glucose in db/db diabetic peripheral neuropathy mice (Embodiment 8)", "type": "in vivo", "settings": "50 mg/kg i.p. three times a week, 8 weeks", "experimental": "(§1) Eighteen 16-week male C57BL/KsJ db/db mice, SPF grade, provided by Jiangsu GemPharmatech Co. Ltd., Changzhou Branch. […] The littermate w/w male mice of the same age were selected as the control group. The heat pain threshold was measured in all mice before administration to determine DPN symptoms. […] The control group and the db/db model group were intraperitoneally injected with an equal volume of saline. During the treatment period, blood glucose changes in mice were monitored every three days to determine the hypoglycemic effect of the drug. At the end of the 8th week, the heat pain threshold was detected. Mice were sacrificed to detect related factors through detection kits."}, "[2]": {"settings": "intravenous injection, human body; cited from earlier work"}, "C57BL/KsJ db/db mice [3]": {"tested_on": "C57BL/KsJ db/db mice", "experiment": "Serum CRE, BUN and UACR in diabetic nephropathy mice", "type": "in vivo", "settings": "30 mg/kg i.p. once a day, four weeks", "experimental": "(§2) 10-week male C57BL/KsJ db/db mice, SPF grade, provided by Jiangsu GemPharmatech Co. Ltd., Changzhou Branch, certificate number: 202012449, with an initial weight of 44±2 g, underwent adaptive feeding for two weeks. […] There were 6 littermate w/w male mice of the same week age as the solvent control group. Different doses were given by intraperitoneal injection at 10 mL/kg volume once a day for four weeks, respectively, and equal volumes of normal saline were given by intraperitoneal injection in the control and model groups. During the treatment cycle, the blood glucose changes in mice were detected every three days, and the percentages of blood glucose reduced by the drugs were calculated based on the difference between the blood glucose of the model and the normal control group, so as to clarify the hypoglycemic effect of the drugs."}, "C57BL/KsJ db/db mice [4]": {"tested_on": "C57BL/KsJ db/db mice", "experiment": "Blood glucose in db/db type 2 diabetes mice (Embodiment 4)", "type": "in vivo", "settings": "gavage; for reduction of blood glucose contents: 1 month, nanoparticles 100 mg/kg once every 3 days, LA monomer 100 mg/kg and metformin 120 mg/kg once a day, relative to model-normal control difference", "experimental": "A total of 24 C57BL/KsJ db/db mice were randomly divided into 4 groups according to body weight and blood glucose, with 6 mice in each group. […] There were 6 littermate w/w male mice of the same week age as the solvent control group. […] After administration of a single dose, the blood glucose changes of mice were continuously monitored for 3 days. During the 1-month treatment cycle, the blood glucose changes of the mice were detected every 3 days. On the 30th day, 2 h after the end of administration, the blood glucose of mice was measured, and the percentage of blood glucose reduced by the drug was calculated based on the difference between the blood glucose of the model and the normal control group. The mice were killed by enucleation and bloodletting, serum samples were collected by centrifugation at room temperature, the serum insulin content was detected by mouse insulin ELISA detection kit, and the insulin resistance index was calculated, and the percentage of the drug to reduce the serum insulin content and insulin resistance index was calculated based on the difference between the model and the normal control group.\nThe results of the quantitative experiment were expressed as mean±variance (x±s). SPSS version19.0 Statistical Software (Chicago, IL, USA) was used to compare the differences between groups using one-way analysis of variance. When the difference was significant (P<0.05), the Turkey post hoc method was used for pairwise comparison, and when P<0.05, the difference was considered statistically significant."}, "C57BL/KsJ db/db mice [5]": {"tested_on": "C57BL/KsJ db/db mice", "experiment": "Blood glucose in db/db diabetic nephropathy mice (Embodiment 6)", "type": "in vivo", "settings": "30 mg/kg intraperitoneal once a day, four weeks", "experimental": "as §2, with “drugs. […] The results of the quantitative experiment were expressed as mean±variance (x±s). SPSS version19.0 Statistical Software (Chicago, IL, USA) was used to compare the differences between groups using one-way analysis of variance. When the difference was significant (P<0.05), the Turkey post hoc method was used for pairwise comparison, and when P<0.05, the difference was considered statistically significant.” for “drugs.”"}, "C57BL/KsJ db/db mice [6]": {"tested_on": "C57BL/KsJ db/db mice", "experiment": "Kidney tissue pathology (HE, PAS, TEM) in diabetic nephropathy mice", "type": "in vivo", "settings": "30 mg/kg i.p. once a day, four weeks", "experimental": "as §2"}, "C57BL/KsJ db/db mice [7]": {"tested_on": "C57BL/KsJ db/db mice", "experiment": "Transcript levels of TNF-α, IL-1β and IL-6 genes in kidney tissues", "type": "in vivo", "settings": "30 mg/kg i.p. once a day, 4 weeks", "experimental": "as §2"}, "C57BL/KsJ db/db mice [8]": {"tested_on": "C57BL/KsJ db/db mice", "experiment": "Na+-K+-ATPase activity in red blood cells and sciatic nerve", "type": "in vivo", "settings": "50 mg/kg i.p. three times a week, 8 weeks", "experimental": "as §1\nAfter 8 weeks treatment, all mice were sacrificed and the sciatic nerve was isolated. In order to determine the activity of Na^+—K^+-ATPase in red blood cells and sciatic nerve of mice, 10 μL whole blood was collected and added into 240 μL distilled water for mixing, and the activity of Na^+—K^+-ATPase was determined immediately. The sciatic nerve tissue of mice was collected. First, the sciatic nerve was cut into fragments (100 mg: 1800 μL) with small scissors in normal saline and homogenized with Beed Ruptor 24 Elite. Then, the homogenate was centrifuged at 4° C. and 3500 rpm for 15 min, and the supernatant was collected for use."}, "C57BL/KsJ db/db mice [9]": {"tested_on": "C57BL/KsJ db/db mice", "experiment": "TNF-α, IL-1β and IL-6 contents in sciatic nerve", "type": "in vivo", "settings": "50 mg/kg i.p. three times a week, 8 weeks", "experimental": "as §1\n(§3) At the end of the experiment, mice were sacrificed and sciatic nerve cells were isolated. In order to determine the contents of MDA, GSH, SOD, TNF-α, IL-6 and IL-1β in the sciatic nerve, the sciatic nerve was first cut into fragments (100 mg: 1800 μL) with small scissors in normal saline and homogenized with Beed Ruptor 24 Elite. Then, the homogenate was centrifuged at 4° C. and 3500 rpm for 15 min, and the supernatant was collected for use. Then, commercial kits were used to determine the activity of SOD and the contents of MDA, GSH, TNF-α, IL-6 and IL-1β in sciatic nerve homogenate."}, "C57BL/KsJ db/db mice [10]": {"tested_on": "C57BL/KsJ db/db mice", "experiment": "SOD activity and MDA, GSH contents in sciatic nerve", "type": "in vivo", "settings": "50 mg/kg i.p. three times a week, 8 weeks", "experimental": "as §1, §3"}, "C57BL/KsJ db/db mice [11]": {"tested_on": "C57BL/KsJ db/db mice", "experiment": "Serum insulin content and insulin resistance index in db/db diabetic mice", "type": "in vivo", "settings": "gavage, end of 1 month treatment, nanoparticles 100 mg/kg every 3 days, LA monomer 100 mg/kg and metformin 120 mg/kg daily", "source_text": "8-week male C57BL/KsJ db/db mice, SPF grade, provided by Jiangsu GemPharmatech Co. Ltd., Changzhou Branch, certificate number: 202012449, with an initial weight of 44±2 g, underwent adaptive feeding for one week. A total of 24 C57BL/KsJ db/db mice were randomly divided into 4 groups according to body weight and blood glucose, with 6 mice in each group. […] There were 6 littermate w/w male mice of the same week age as the solvent control group. […] After administration of a single dose, the blood glucose changes of mice were continuously monitored for 3 days. During the 1-month treatment cycle, the blood glucose changes of the mice were detected every 3 days. […] The mice were killed by enucleation and bloodletting, serum samples were collected by centrifugation at room temperature, the serum insulin content was detected by mouse insulin ELISA detection kit, and the insulin resistance index was calculated, and the percentage of the drug to reduce the serum insulin content and insulin resistance index was calculated based on the difference between the model and the normal control group. The results of the quantitative experiment were expressed as mean±variance (x±s). SPSS version19.0 Statistical Software (Chicago, IL, USA) was used to compare the differences between groups using one-way analysis of variance. When the difference was significant (P<0.05), the Turkey post hoc method was used for pairwise comparison, and when P<0.05, the difference was considered statistically significant."}, "C57BL/KsJ db/db mice [12]": {"tested_on": "C57BL/KsJ db/db mice", "experiment": "MDA content and SOD activity in kidney tissues", "type": "in vivo", "settings": "30 mg/kg i.p. once a day, 4 weeks", "experimental": "as §2"}},
  "note": "Structures can show the parent of a compound that is named as a salt.",
  "data": [
    {"smiles": "O=C(O)CCCCC1CCSS1", "note": "(centres unmarked) [LA monomer, lipoic acid]", "values": [
      {"measurement": "hypoglycemic effect (in words)", "setting": "C57BL/KsJ db/db mice [1]", "result": "no hypoglycemic effect"},
      {"measurement": "fraction passing through the glomerulus into the renal tubules and excreted in the urine", "setting": "[2]", "result": "80-90%"},
      {"measurement": "decrease of BUN content vs db/db model group", "setting": "C57BL/KsJ db/db mice [3]", "result": 25.45, "unit": "%"},
      {"measurement": "decrease of UACR level vs db/db model group", "setting": "C57BL/KsJ db/db mice [3]", "result": 24.75, "unit": "%"},
      {"measurement": "decrease of serum CRE vs db/db model group", "setting": "C57BL/KsJ db/db mice [3]", "result": 21.05, "unit": "%"},
      {"measurement": "reduction of blood glucose contents", "setting": "C57BL/KsJ db/db mice [4]", "result": "no hypoglycemic effect"},
      {"measurement": "blood glucose levels versus model group after a single dose", "setting": "C57BL/KsJ db/db mice [4]; single dose 100 mg/kg, monitored 3 days", "result": "no significant difference"},
      {"measurement": "reduction of blood glucose content", "setting": "C57BL/KsJ db/db mice [5]", "result": "no hypoglycemic effect"},
      {"measurement": "decrease of basement membrane thickness vs db/db model group", "setting": "C57BL/KsJ db/db mice [6]", "result": 6.57, "unit": "%"},
      {"measurement": "increase of number of foot processes vs db/db model group", "setting": "C57BL/KsJ db/db mice [6]", "result": 10.14, "unit": "%"},
      {"measurement": "shrinkage of glomeruli vs db/db model group", "setting": "C57BL/KsJ db/db mice [6]", "result": 25.50, "unit": "%"},
      {"measurement": "reduction of IL-1β transcript level in kidney", "setting": "C57BL/KsJ db/db mice [7]", "result": 18.18, "unit": "%"},
      {"measurement": "reduction of IL-6 transcript level in kidney", "setting": "C57BL/KsJ db/db mice [7]", "result": 23.33, "unit": "%"},
      {"measurement": "reduction of TNF-α transcript level in kidney", "setting": "C57BL/KsJ db/db mice [7]", "result": 22.5, "unit": "%"},
      {"measurement": "increase of Na+-K+-ATPase activity in sciatic nerve vs db/db mice", "setting": "C57BL/KsJ db/db mice [8]", "result": 120, "unit": "%"},
      {"measurement": "increase of Na+-K+-ATPase activity of red blood cells vs db/db mice", "setting": "C57BL/KsJ db/db mice [8]", "result": 137, "unit": "%"},
      {"measurement": "decrease of IL-1β level in sciatic nerve tissue vs db/db mice", "setting": "C57BL/KsJ db/db mice [9]", "result": 27.46, "unit": "%"},
      {"measurement": "decrease of IL-6 level in sciatic nerve tissue vs db/db mice", "setting": "C57BL/KsJ db/db mice [9]", "result": 38.42, "unit": "%"},
      {"measurement": "decrease of TNF-α level in sciatic nerve tissue vs db/db mice", "setting": "C57BL/KsJ db/db mice [9]", "result": 34.42, "unit": "%"},
      {"measurement": "decrease of MDA content in sciatic nerve", "setting": "C57BL/KsJ db/db mice [10]", "result": 30.79, "unit": "%"},
      {"measurement": "increase of GSH content in sciatic nerve", "setting": "C57BL/KsJ db/db mice [10]", "result": 10.79},
      {"measurement": "increase of SOD activity in sciatic nerve", "setting": "C57BL/KsJ db/db mice [10]", "result": 15.76, "unit": "%"},
      {"measurement": "decrease of serum insulin content", "setting": "C57BL/KsJ db/db mice [11]", "result": "no significant difference"},
      {"measurement": "increase of SOD activity in kidney tissues", "setting": "C57BL/KsJ db/db mice [12]", "result": 55, "unit": "%"},
      {"measurement": "reduction of MDA content in kidney tissues", "setting": "C57BL/KsJ db/db mice [12]", "result": 9.8, "unit": "%"}
    ]},
    {"smiles": "CN(C)C(=N)N=C(N)N", "note": "[metformin, metformin hydrochloride]", "values": [
      {"measurement": "reduction of blood glucose contents", "setting": "C57BL/KsJ db/db mice [4]", "result": 50.28, "unit": "%"},
      {"measurement": "duration of hypoglycemic effect after a single dose", "setting": "C57BL/KsJ db/db mice [4]; single dose, nanoparticles 100 mg/kg, metformin 120 mg/kg", "result": "≤ 24", "unit": "h"},
      {"measurement": "decrease of insulin resistance index", "setting": "C57BL/KsJ db/db mice [11]", "result": 53.68, "unit": "%"},
      {"measurement": "decrease of serum insulin content", "setting": "C57BL/KsJ db/db mice [11]", "result": 34.69, "unit": "%"}
    ]}
  ]
}
